Activity calls are given as the source filed them. The calls are words filed in the database; no cut-off is given here.

For this experiment, the target named is TCF4/beta-catenin (Homo sapiens) (UniProt P35222+Q9NQB0). Briefly: Inhibition of TCF-4 ( 1 to 56 residues) (unknown origin) binding to beta-catenin/armadillo (unknown origin) at 50 uM by ITC assay. The format is protein-complex assay.
With `CC(=O)N(CCCC(C)c1ccccc1)c1nc2c(s1)CCc1ccccc1-2` (centres undefined), the inhibition result was “Active”.
Take `O=C(CCNS(=O)(=O)c1ccccc1)NNS(=O)(=O)Cc1ccc(Cl)s1`: the inhibition result is “Active”.
As for `Nc1n[nH]c(CC2CN(c3ccc(N4CCNCC4)c(Cl)c3)C(=O)N2)n1` (centres undefined), the entry is “Active”; as for `Cc1cc(/C(=C\c2ccccc2)c2ccc(OCCN3CCCC3)cc2)on1`, “Active”; as for `Cc1ccc(/C=N/c2cccc3c(-c4ccncc4)ccnc23)o1`, “Active”.
Consider `Cc1nnc(-c2sc3nc(-c4ccc(Cl)cc4)nn3c2C)o1`, for which the inhibition entry was “Active”.
As for `COc1cccc2c1CCc1sc(N(CCOC(C)CCc3ccccc3)C(C)=O)nc1-2` (centres undefined), the entry is “Active”; as for `O=C(c1ccc(Br)o1)N1CCN(C(c2ccccc2)c2ccccc2)CC1`, “Active”; as for `CS(=O)(=O)N(CCCCOc1ccccc1)c1nc2c(s1)CCc1ccccc1-2`, “Active”.
Take `Cc1ccc(C(=O)N2CCN(C(c3ccccc3)c3ccccc3)CC2)s1`: the inhibition entry is “Active”.
In the case of `Cc1ccc(Nc2cccc(-c3ccccc3Oc3ccccc3)c2)o1` it was “Active”; in that of `O=C(Nc1nnc(Br)o1)c1c(O)cc(-c2ccccc2)oc1=O`, “Active”; in that of `Cc1ccc(/C=C/c2ccc3[nH]c(-c4ccco4)cc3c2)o1`, “Active”.
In the case of `Cc1ccc(/C=N/n2c(=O)n(-c3ccncc3)c(=O)c3ccccc32)o1` it was “Active”; in that of `Oc1nnc(CCCc2ccc(Oc3ccccc3)cc2)o1`, “Active”.
For the compound `Cc1ccc(COc2ccccc2C=C2CCN(S(=O)(=O)c3ccncc3)CC2)o1`, the inhibition result was “Active”.
In the case of `Cc1ccc(/C=N/NC(=O)c2ccccc2Oc2ccccc2)o1` it was “Active”; in that of `Cc1ccc(CCc2ccc3[nH]c(-c4ccco4)cc3c2)o1`, “Active”; in that of `CS(=O)(=O)N(CCOCCc1ccccc1)c1nc2c([nH]1)CCc1ccccc1-2`, “Active”.
`Cc1ccc(-c2ccc3ccc(Oc4ccncc4)cc3c2)o1`: the inhibition result is “Active”.
For `Nc1n[nH]c(CC2CN(c3ccc(N4CCOCC4)c(F)c3)C(=O)O2)n1` (centres undefined), the inhibition entry is “Active”.
In the case of `O=c1oc(-c2ccccc2)cc(O)c1/C=C/c1nnc(Br)o1` it was “Active”; in that of `Cc1ccc(CCc2ccc3[nH]c(-c4cccs4)cc3c2)o1`, “Active”; in that of `O=S(=O)(c1ccc(OCc2cnc(Cl)s2)cc1)N1CCOCC1`, “Active”.
For the compound `C/C(=N\NC(=O)OCc1ccccc1)c1cc(C)cs1`, the inhibition entry was “Active”.
`Cc1cc(NC(=O)c2ccc(Oc3ccccc3)cc2)on1`: the inhibition entry was “Active”.
In the case of `Cc1ccc(/C(=N\NC(=O)c2ccccc2Nc2ccccc2)c2ccccc2)o1` it was “Active”.
In the case of `Cc1cc(-c2onc(C)c2COC(=O)Nc2ccccc2)no1` it was “Active”; in that of `Cc1cc(CNC(=O)/C=C2\C(=O)N(c3ccncc3)c3ccccc32)on1`, “Active”.
As for `O=C(c1ccncc1)N1CCC(=Cc2ccccc2OCc2ccc(Br)o2)CC1`, the entry is “Active”.
In the case of `Cc1ccc(CNC(=O)/C=C2\C(=O)N(c3ccncc3)c3ccccc32)o1`, the inhibition entry was “Active”.
As for `Cc1ccc(/C(=N\NC(=O)c2ccccc2Oc2ccccc2)c2ccccc2)s1`, the entry is “Active”.
As for `C/C(=N\NC(=O)COc1ccccc1)c1ccc(C)s1`, the inhibition entry is “Active”.
With `Cc1ccc(/C=N/N=C2\C(=O)N(c3ccncc3)c3ccccc32)o1`, the inhibition result is “Active”.
In the case of `Cc1ccc(/C(=N\NC(=O)c2ccccc2Oc2ccccc2)c2ccccn2)o1` it was “Active”; in that of `Cc1cc(NC(=O)c2c(O)cc(Oc3ccccc3)oc2=O)on1`, “Active”; in that of `Cc1cc(NC(=O)NC(=O)c2nnc(-c3ccccc3)o2)no1`, “Active”.
As for `Cc1ccc(NC(=O)c2c(O)cc(-c3ccccc3)oc2=O)o1`, the entry is “Active”; as for `Cc1ccc(/C=N/Nc2cc(C(=O)NCCc3ccccc3)cc3c2CCc2ccncc2-3)o1`, “Active”.

Source of the values: ChEMBL document CHEMBL3881522, “Interaction inhibitors of TCF-4 with Beta-catenin” (2004).
